Laboratory results reported in ChEMBL document CHEMBL5465560, “Selectivity Literature for EUbOPEN Chemogenomic Library” (2024).
Each block holds one compound with its values, some of them ahead of it.

Legend:
[1] = biological target: T1, Megakaryocyte-associated tyrosine-protein kinase (Homo sapiens) (UniProt P42679); test: Selectivity interaction (Ambit KINOMEscan and KiNATiv profiling in Jurkat cells) EUB0000090b MATK; assay type: cell-based; details: at 1 µM
T1 sequence (whole entry): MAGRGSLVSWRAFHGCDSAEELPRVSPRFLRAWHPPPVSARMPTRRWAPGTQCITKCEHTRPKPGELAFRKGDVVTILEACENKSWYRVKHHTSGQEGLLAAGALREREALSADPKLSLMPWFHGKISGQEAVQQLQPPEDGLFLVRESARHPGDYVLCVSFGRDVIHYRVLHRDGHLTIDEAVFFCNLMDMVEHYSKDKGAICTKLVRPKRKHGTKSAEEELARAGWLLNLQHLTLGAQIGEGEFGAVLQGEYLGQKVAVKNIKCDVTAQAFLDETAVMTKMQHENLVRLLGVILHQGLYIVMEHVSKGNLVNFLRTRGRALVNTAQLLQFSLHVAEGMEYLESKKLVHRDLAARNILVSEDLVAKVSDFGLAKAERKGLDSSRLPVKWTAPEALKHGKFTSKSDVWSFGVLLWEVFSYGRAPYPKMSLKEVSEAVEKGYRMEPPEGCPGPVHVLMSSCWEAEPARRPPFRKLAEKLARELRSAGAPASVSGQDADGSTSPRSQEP

[2] = biological target: T2, Inhibitor of nuclear factor kappa-B kinase subunit epsilon (Homo sapiens) (UniProt Q14164); test: Selectivity interaction (ActivX KiNativ screen (kinase selectivity in THP-1 cell lysates)) EUB0000639a IKBKE; assay type: subcellular; details: lysate, at 0.04 µM
T2 sequence (whole entry): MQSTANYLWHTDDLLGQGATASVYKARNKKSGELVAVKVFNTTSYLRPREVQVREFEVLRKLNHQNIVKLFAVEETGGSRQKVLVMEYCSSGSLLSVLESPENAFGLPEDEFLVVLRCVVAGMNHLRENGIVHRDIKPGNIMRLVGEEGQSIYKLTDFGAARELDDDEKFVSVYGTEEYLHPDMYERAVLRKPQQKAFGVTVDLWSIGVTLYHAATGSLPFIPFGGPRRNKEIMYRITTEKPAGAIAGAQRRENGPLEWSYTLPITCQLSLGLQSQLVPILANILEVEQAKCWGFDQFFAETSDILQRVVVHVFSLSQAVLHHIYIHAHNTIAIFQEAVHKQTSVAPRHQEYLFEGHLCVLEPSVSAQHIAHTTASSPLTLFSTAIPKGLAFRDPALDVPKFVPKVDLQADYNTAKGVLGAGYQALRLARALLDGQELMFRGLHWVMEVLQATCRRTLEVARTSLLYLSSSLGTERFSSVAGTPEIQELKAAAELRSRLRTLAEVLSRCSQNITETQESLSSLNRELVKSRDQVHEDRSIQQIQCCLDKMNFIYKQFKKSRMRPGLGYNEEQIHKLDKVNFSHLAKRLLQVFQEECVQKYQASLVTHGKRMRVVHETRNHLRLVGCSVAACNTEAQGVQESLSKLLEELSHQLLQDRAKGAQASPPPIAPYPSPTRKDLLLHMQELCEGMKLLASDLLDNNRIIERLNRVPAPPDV

[3] = biological target: Mitogen-activated protein kinase 7 (Homo sapiens) (UniProt Q13164); test: Selectivity interaction (Kinase panel (Z-LYTE Assay)) EUB0001632a MAPK7; details: at 10 µM
Mitogen-activated protein kinase 7 (Homo sapiens), sequence (Q13164 2-816 limits assumed): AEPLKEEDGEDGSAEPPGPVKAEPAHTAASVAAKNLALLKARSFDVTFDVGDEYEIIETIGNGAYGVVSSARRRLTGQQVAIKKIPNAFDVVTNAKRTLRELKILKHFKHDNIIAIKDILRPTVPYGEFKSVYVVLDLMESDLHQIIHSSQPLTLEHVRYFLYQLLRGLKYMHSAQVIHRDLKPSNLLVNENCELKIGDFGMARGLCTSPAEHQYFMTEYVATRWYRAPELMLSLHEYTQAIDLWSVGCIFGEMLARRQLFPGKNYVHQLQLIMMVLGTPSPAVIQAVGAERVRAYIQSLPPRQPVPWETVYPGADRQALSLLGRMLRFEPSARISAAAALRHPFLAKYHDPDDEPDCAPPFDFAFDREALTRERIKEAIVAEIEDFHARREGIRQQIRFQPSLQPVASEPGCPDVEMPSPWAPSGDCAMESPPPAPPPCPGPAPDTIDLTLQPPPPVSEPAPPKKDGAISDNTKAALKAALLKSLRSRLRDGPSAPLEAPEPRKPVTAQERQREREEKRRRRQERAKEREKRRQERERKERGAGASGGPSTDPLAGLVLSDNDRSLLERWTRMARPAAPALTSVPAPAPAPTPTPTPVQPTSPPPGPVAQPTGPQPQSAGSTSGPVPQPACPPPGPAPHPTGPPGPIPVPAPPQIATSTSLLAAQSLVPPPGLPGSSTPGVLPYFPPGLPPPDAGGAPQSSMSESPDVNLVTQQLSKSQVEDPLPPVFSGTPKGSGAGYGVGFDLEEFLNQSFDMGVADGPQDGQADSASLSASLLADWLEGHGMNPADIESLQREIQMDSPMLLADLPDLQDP

[4] = biological target: Death-associated protein kinase 1 (Homo sapiens, UniProt P53355); test: Selectivity interaction (Adapta Assay) EUB0001632a DAPK1; details: at 10 µM
[5] = biological target: CDK9/cyclin T1 (Homo sapiens) (UniProt O60563+P50750); test: Selectivity interaction (Adapta Assay) EUB0001632a CDK9; assay type: protein-complex assay; details: at 10 µM
[6] = biological target: T3, Interleukin-1 receptor-associated kinase 4 (Homo sapiens) (UniProt Q9NWZ3); test: Selectivity interaction (KinomeScan (DiscoverX)) EUB0000595a IRAK4; details: at 10 µM
T3 sequence (whole entry): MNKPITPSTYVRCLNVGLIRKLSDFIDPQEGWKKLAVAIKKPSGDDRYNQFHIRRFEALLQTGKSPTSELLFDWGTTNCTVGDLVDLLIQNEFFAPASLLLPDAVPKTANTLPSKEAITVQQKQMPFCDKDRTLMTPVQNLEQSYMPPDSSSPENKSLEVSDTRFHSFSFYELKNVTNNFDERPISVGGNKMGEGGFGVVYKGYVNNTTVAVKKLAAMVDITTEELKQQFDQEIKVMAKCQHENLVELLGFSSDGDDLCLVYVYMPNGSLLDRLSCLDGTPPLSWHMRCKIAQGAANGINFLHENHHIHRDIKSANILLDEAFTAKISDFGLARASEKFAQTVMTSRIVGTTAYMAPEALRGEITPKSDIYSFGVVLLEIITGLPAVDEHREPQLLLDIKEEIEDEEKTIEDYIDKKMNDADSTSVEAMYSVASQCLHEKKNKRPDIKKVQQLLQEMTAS

[7] = biological target: Wee1-like protein kinase (Homo sapiens) (UniProt P30291); test: Selectivity interaction (KinomeScan (DiscoverX)) EUB0000229b WEE1; details: at 10 µM
Wee1-like protein kinase (Homo sapiens), sequence (P30291 whole entry, looked up): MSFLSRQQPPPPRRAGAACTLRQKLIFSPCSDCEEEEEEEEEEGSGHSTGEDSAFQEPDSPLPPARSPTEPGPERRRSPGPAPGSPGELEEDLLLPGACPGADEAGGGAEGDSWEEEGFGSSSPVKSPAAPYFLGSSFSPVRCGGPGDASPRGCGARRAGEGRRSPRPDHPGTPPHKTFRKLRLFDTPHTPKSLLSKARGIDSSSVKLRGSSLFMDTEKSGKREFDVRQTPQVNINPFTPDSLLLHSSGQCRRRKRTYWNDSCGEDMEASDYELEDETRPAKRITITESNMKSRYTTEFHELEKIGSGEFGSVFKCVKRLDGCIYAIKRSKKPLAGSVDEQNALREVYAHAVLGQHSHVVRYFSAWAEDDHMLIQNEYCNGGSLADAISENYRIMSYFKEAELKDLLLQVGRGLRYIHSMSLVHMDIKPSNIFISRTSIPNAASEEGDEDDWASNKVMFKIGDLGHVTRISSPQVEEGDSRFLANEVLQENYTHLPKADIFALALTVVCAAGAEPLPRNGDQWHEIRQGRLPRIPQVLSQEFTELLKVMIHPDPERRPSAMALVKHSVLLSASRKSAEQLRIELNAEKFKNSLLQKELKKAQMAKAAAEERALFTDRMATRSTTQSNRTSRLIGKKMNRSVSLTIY

[8] = biological target: Serine/threonine-protein kinase pim-2 (Homo sapiens, UniProt Q9P1W9); test: Selectivity interaction (KinomeScan (DiscoverX)) EUB0001079a PIM2; details: at 1 µM
[9] = biological target: Fibroblast growth factor receptor 1 (Homo sapiens, UniProt P11362); test: Selectivity interaction (Upstate Kinase Profiler service (Millipore)) EUB0000056c FGFR1; details: at 1 µM
Fibroblast growth factor receptor 1, sequence (P11362 22-822 limits assumed): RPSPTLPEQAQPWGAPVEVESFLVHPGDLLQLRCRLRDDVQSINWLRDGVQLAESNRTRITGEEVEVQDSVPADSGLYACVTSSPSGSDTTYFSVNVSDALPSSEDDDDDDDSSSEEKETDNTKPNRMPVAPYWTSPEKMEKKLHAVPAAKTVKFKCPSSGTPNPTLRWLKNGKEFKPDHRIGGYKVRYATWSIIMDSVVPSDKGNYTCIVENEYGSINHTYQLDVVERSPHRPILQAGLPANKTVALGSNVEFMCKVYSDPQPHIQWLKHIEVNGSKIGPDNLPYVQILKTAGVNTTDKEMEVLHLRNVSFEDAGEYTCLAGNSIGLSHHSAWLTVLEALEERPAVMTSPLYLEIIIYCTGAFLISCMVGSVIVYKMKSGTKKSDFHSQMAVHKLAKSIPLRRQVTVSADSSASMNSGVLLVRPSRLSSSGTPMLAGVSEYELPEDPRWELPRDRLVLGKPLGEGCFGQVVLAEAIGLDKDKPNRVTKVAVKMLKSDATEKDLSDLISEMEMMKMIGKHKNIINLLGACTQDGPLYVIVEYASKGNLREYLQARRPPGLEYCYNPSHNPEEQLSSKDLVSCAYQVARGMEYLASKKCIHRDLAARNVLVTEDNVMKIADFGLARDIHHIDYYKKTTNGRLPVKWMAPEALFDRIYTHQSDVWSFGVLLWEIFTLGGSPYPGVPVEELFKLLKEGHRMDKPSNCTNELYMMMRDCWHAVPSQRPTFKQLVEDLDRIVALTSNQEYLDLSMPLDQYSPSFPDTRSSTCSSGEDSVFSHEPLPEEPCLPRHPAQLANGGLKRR

[10] = biological target: Mitogen-activated protein kinase kinase kinase 11 (Homo sapiens) (UniProt Q16584); test: Selectivity interaction (KinomeScan (DiscoverX)) EUB0000045b MAP3K11
Mitogen-activated protein kinase kinase kinase 11 (Homo sapiens), sequence (Q16584 whole entry, looked up): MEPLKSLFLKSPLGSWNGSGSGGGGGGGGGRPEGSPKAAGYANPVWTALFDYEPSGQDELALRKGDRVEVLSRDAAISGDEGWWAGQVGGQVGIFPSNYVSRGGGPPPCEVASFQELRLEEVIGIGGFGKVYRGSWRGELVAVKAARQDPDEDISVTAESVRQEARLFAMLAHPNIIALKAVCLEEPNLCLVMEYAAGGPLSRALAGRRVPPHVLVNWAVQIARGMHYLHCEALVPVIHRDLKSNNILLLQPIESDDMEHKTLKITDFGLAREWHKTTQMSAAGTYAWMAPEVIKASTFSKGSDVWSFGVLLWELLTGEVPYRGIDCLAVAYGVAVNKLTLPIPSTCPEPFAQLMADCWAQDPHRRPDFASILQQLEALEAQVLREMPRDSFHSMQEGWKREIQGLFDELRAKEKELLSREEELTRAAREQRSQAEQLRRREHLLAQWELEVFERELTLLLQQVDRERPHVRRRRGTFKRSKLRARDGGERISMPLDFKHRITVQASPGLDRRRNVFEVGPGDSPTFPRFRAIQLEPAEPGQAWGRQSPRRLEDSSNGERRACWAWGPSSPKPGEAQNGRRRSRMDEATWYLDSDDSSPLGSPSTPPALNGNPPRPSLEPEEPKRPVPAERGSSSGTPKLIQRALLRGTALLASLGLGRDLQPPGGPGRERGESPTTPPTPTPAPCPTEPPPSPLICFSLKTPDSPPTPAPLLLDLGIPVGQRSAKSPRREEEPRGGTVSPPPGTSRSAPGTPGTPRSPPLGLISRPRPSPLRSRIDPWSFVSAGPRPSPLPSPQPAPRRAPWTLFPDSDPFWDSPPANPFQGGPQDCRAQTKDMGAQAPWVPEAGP

[11] = biological target: Tyrosine-protein kinase BTK (Homo sapiens, UniProt Q06187); test: Selectivity interaction (KinomeScan (DiscoverX)) EUB0000618a BTK; details: at 10 µM
Tyrosine-protein kinase BTK, sequence (Q06187 whole entry): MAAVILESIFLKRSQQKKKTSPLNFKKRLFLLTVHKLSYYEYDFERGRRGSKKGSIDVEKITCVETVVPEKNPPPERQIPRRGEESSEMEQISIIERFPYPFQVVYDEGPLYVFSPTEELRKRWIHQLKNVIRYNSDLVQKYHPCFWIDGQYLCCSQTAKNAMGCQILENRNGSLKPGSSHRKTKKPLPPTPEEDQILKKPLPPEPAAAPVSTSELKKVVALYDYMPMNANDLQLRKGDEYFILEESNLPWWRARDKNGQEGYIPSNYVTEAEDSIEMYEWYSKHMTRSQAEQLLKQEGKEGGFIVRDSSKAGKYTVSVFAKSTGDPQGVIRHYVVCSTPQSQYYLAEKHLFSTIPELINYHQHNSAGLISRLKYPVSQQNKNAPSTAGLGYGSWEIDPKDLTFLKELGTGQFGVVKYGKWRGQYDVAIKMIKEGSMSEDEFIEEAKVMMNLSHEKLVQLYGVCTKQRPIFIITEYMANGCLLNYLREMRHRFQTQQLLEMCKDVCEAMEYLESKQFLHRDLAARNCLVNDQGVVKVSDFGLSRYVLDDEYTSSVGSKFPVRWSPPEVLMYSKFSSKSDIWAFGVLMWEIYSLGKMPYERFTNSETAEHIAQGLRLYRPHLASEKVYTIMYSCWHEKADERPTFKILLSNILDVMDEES

[12] = biological target: STE20-like serine/threonine-protein kinase (Homo sapiens, UniProt Q9H2G2); test: Selectivity interaction (KinomeScan (DiscoverX)) EUB0000666a SLK; details: at 10 µM
STE20-like serine/threonine-protein kinase, sequence (Q9H2G2 whole entry, looked up): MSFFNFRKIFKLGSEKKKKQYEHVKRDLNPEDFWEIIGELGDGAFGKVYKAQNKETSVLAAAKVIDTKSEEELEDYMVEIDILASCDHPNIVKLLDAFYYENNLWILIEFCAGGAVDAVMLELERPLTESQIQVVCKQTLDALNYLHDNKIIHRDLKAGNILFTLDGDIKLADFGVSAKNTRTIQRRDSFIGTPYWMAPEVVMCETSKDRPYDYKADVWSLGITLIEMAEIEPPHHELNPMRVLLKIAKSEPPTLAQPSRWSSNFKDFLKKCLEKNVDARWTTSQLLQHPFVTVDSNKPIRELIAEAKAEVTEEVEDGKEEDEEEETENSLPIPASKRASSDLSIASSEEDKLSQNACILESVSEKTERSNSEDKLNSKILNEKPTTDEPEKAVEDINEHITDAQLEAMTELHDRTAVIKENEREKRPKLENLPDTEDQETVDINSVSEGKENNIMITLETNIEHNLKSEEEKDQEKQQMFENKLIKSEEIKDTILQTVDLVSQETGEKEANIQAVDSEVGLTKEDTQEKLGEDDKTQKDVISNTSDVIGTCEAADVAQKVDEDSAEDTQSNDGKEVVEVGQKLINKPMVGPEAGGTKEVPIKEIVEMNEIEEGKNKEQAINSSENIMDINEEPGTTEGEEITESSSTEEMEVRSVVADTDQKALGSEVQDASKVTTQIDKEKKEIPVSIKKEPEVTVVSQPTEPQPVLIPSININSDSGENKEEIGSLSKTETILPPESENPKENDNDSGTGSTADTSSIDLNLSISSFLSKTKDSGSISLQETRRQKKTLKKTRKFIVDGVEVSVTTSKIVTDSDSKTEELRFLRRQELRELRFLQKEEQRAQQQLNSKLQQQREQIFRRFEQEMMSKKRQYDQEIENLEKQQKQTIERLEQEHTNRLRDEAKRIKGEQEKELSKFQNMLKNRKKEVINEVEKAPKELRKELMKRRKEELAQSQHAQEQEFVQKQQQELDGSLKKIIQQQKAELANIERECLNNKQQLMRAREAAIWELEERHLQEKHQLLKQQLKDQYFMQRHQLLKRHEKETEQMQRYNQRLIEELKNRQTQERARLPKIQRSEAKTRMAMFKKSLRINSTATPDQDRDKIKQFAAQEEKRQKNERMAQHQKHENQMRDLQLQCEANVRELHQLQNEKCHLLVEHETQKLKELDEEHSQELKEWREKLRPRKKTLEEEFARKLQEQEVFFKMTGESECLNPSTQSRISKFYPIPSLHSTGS

SMILES: CN(C)C/C=C/C(=O)Nc1ccc(C(=O)N2CCCC(Nc3ncc(Cl)c(-c4c[nH]c5ccccc45)n3)C2)cc1 (stereo not drawn)
% of control [1]: 94%

% of inhibition [2]: -22.2%
SMILES: CC[C@@H]1[C@H](F)C(=O)N[C@@H]1COc1nccc2cc(C(N)=O)c(OC)cc12 [ZIMLOVISERTIB]

% of control [3]: 2.02%
% of inhibition [5]: 63.9%
SMILES: Cn1cc(-n2cnc3c(NCc4nc5cc(Cl)c(Cl)cc5[nH]4)nc(N4CCOCC4)nc32)cn1
% of inhibition [4]: 34%

SMILES: COCC(=O)NC/C=C/c1ccc2ncnc(Nc3ccc(Oc4ccc(C)nc4)c(C)c3)c2c1 [CP-724714]
% of control [6]: 100%

SMILES: COc1cc(N(C)c2ccnc3ccc(C(F)(F)F)cc23)cc(OC)c1OC
% binding [7]: 91%

SMILES: Nc1cnc(N2CCc3cc(S(=O)(=O)Nc4c(F)cc(Cl)cc4F)cc(N4CCCC4=O)c32)nc1 [TP-020n]
% of control [8]: 85%

% of inhibition [9]: 3%
SMILES: Cc1ccc(-c2ccc3c(ccc4sc5c(c43)NC[C@@H](C)NC5=O)n2)cn1

SMILES: C=CC(=O)Nc1cc(-n2c(=O)ccc3cnc4ccc(-c5ccc(NS(C)(=O)=O)cc5)cc4c32)ccc1C
% of control ([10]; at 1 µM): 91%
% of control ([10]; at 10 µM): 87%

SMILES: O[C@H]1CC[C@H](Nc2ncc3nc(Nc4c(F)cc(F)cc4F)n([C@H]4CCOC4)c3n2)CC1
% of control [11]: 100%

SMILES: O=C(NOC[C@H](O)CO)c1ccc(F)c(F)c1Nc1ccc(I)cc1F
% of control [12]: 93%
